{
  "source": "patent US10227610B2",
  "about": "“Methods and compositions for enhancing nuclease-mediated gene disruption” (SANGAMO THERAPEUTICS, INC., priority 2013, dated 2019)",
  "key": {"[1]": {"system": "K562 cells", "assay": "ZFN-mediated targeted integration of ssOligo at CCR5 locus, RFLP assay and 96 colony sequencing", "assay_type": "cell-based, human", "settings": "Day 3; for effect on targeted integration: KU55933 10 μM, Olaparib 5 μM added to DNA-PKcs inhibitor", "protocol": "K562 cells were transfected by Amaxa® electroporation system with plasmid DNA encoding a CCR5-specific ZFN pair (see, U.S. Pat. No. 7,951,925) and a single-stranded oligonucleotide (ssOligo) (120 bp) which has homology to the target region and harbors a unique restriction site (Avr II). The cells then were treated twice with small molecule inhibitors described in Example 1 (outlined in FIG. 2A). In particular, the inhibitors Olaparib (PARP1/2-inhibitor) and NU7441 (DNA-PKcs-inhibitor) were added 5 hours after the ZFN-encoding DNA delivery at concentration of 5 μM and 3 μM, respectively. As a control, the ATM inhibitor KU55933 was added at a concentration of 10 μM. After 15 hours, fresh inhibitors were added to the medium to counteract the decay of the inhibitors in the cell culture medium. After a further 54 hours, the cells were harvested and genomic DNA was prepared for Day 3 analysis by Surveyor™/CelI assay, RFLP analysis and DNA sequencing.\nThe RFLP assay was carried out by digestion of the PCR amplified target locus with a restriction enzyme cutting in the integrated ssOligo. For DNA sequencing, the genomic target region of the ZFN was amplified by PCR, topo-cloned and 96 individual clones were sequenced."}, "[2]": {"system": "Hepa 1-6 cells", "assay": "Mutagenic repair (% indels) after albumin-specific ZFN, Surveyor/CelI assay and clone sequencing", "assay_type": "cell-based", "protocol": "In particular, the inhibitors Olaparib (PARP1-inhibitor) and NU7441 (DNA-PKcs inhibitor) were added 3 hours after mRNA delivery at concentration of 5 μM and 3-5 μM respectively. As a control, the ATM inhibitor KU55933 was added at a concentration of 10 μM (ATM has no direct role in DSB repair but is related to DNA-PKcs). After 15 hours, fresh inhibitors were added to the medium to counteract the decay of the inhibitors in the cell culture medium.\nAfter a further 54 hours, cells were harvested and genomic DNA was prepared for Day 3 analysis by Surveyor™/CelI assay and DNA sequencing. For DNA sequencing the genomic target region of the ZFN was amplified by PCR, topo-cloned and 96 individual clones were sequenced. The sequences were analyzed and the results used to divide the clones into groups by the genome type (e.g. wild type genomes, those with insertions and/or deletions, and those with other modifications). At Day 3 harvest about a third of the cells were re-seeded in fresh medium without inhibitors and were grown until day 10 when they were harvested and analyzed by Surveyor™/CelI assay."}, "[3]": {"system": "K562 cells", "assay": "Targeted integration of AAVS1 oligo with double-stranded cleaving or nickase ZFNs, HindIII digestion", "assay_type": "cell-based, human", "settings": "NU1025 for 24 hr or 48 hr", "protocol": "In another experiment, K562 cells were treated with the PARP1 inhibitor NU1025. Briefly, two million K562 cells were nucleofected with 5 μg of double-stranded cleaving or nickase ZFNs specific for AAVS1 (U.S. Pat. No. 8,110,379) with or without 3 μl of an antisense AAVS1 oligo (100 μM). The cells were immediately treated with PARP inhibitor NU1025 after nucleofection for 24 hr or 48 hr. All cells were harvested 48 hr after nucleofection. 1.0 μg of PCR DNA was subjected to HindIII digestion."}, "[4]": {"system": "CHO K1 cells", "assay": "Targeted integration of double stranded donor at glutamine synthetase (GS) locus, RFLP", "assay_type": "cell-based", "protocol": "The use of DNA PKcs inhibitors during insertion of a double stranded donor in CHO K1 cells was also tested. For this experiment, a donor that was delivered either via a plasmid (FIG. 4E) or via a PCR fragment (FIG. 4F). Briefly, CHO K1 cells were transfected with Nucleofector Kit V on an Amaxa® instrument. The transfection components and their dosages were as follows: one million CHO K1 cells suspended in 100 μl of Nucleofection™ Solution V; 4 μg each of two in vitro transcribed ZFN mRNAs engineered for inducing DSBs at the glutamine synthetase locus (GS) in CHO cells (see, e.g., U.S. Pat. No. 8,153,399); 2 μg (FIG. 4E) or 4 μg (FIG. 4F) of in vitro transcribed CHO or human Rad52 mRNA; 10 μg of plasmid donor (3.8 kb) or PCR fragment donor (1.1 kb). The plasmid donor and the PCR fragment donor both carried the same target integration sequence, containing two 500 bp homologous arms, two loxP sites, and a multiple cloning site.\nDNA-PKcs inhibitor NU7026 or NU7441 was added into 2 ml per well of pre-warmed culture medium in a 6-well plate at concentration of 20 μM or 16 respectively, before transfected cells were added into the medium. Cells were grown in the inhibitor-containing medium for 24 hours at 37° C. and 5% CO2. The medium was then replaced with fresh medium without inhibitor. DMSO was used as inhibitor blank control. […]"}, "[5]": {"system": "CD34+ cells", "assay": "Targeted integration of ssOligo at CCR5 in primary cells, clone sequencing", "assay_type": "cell-based", "settings": "NU7441 3 μM, Day 3; at the expense of 5-nucleotide duplications and deletions", "protocol": "Specifically, donor derived CD34+ cells were transfected 3 days after culture in medium suppressing differentiation. This was carried out by the BTX electroporation system with mRNA DNA encoding a CCR5-specific ZFN pair and a ssOligonucleotide (120 bp) which has homology to the target region and harbors a unique restriction site (Avr II). The cells were then treated twice with small molecule inhibitors as described in Example 1. In particular, the inhibitor NU7441 (DNA-PKcs-inhibitor) was added 3 hours after mRNA delivery at a concentration of 3 μM. After 15 hours, fresh inhibitors were added to the medium to counteract the decay of the inhibitors in the cell culture medium. After a further 54 hours, cells were harvested and genomic DNA was prepared for Day 3 analysis by DNA sequencing. For DNA sequencing the genomic target region of the ZFN was amplified by PCR, topo-cloned, and 96 individual clones were sequenced."}, "[6]": {"system": "K562 cells", "assay": "Nickase ZFN with ssOligo at CCR5, Surveyor/CelI assay and sequencing", "assay_type": "cell-based, human", "source_text": "K562 cells were transfected by Amaxa electroporation system with plasmid DNA encoding a CCR5-specific ZFN pair (see, U.S. Pat. No. 7,951,925) and a single-stranded oligonucleotide (ssOligo) (120 bp) which has homology to the target region and harbors a unique restriction site (Avr II). […] Due to the less deleterious nature of this kind of DNA damage, recombination events mediated by ssDNA breaks may be preferable over DSBs. However, the frequency of gene modification mediated via ssDNA breaks is very low. DNA-PKcs and PARP inhibitors were used in an attempt to increase the frequency of gene modification mediated via ssDNA breaks (“nicks”).\nBriefly, the transfected K562 cells were treated twice with either PARP1/2 inhibitor (Olaparib-5 μM) or DNA-PKcs inhibitor (NU7441-3 μM) 5 hours and 15 hours after transfection to counteract the decay of the inhibitors in the cell culture medium. After a further 54 hours, cells were harvested and genomic DNA was prepared for Day 3 analysis by Surveyor™/CelI assay, RFLP analysis and DNA sequencing as described in Example 1. The RFLP assay was carried out by digestion of the PCR amplified target locus with a restriction enzyme cutting in the integrated ssOligo. For DNA sequencing, the genomic target region of the ZFN was amplified by PCR, topo-cloned, and 96 individual clones were sequenced."}, "[7]": {"system": "K562 cells", "assay": "TALEN-mediated targeted integration at human CCR5 locus, deep sequencing", "assay_type": "cell-based", "protocol": "See, e.g., U.S. Pat. No. 8,586,526. K562 cells were transfected by AMAXA with plasmid DNA encoding either hCCR5 TALENs or ZFNs and then the cells were treated with DMSO or DNA-PKcs inhibitor NU7441. Cells were harvested at Day 3 and Day 10 and genomic PCR was analyzed after PCR by deep sequencing."}, "[8]": {"system": "HEK293 cells", "assay": "Targeted integration of ssDNA oligo donor at AAVS1 locus, RFLP", "assay_type": "cell-based, human", "settings": "NU7441 10 μM", "protocol": "We next used the inhibitors to measure their effect on targeted integration of single-stranded donors. Briefly, HEK293 and MCF7 cells were transfected with Nucleofector Kit V and MCF10A cells were transfected with Nuleofector™ Kit L on an Amaxa® instrument. The transfection components and their dosages were as follows: 0.8 million cells suspended in 100 μL of nucleofection solution; 3 μg each of two in vitro transcribed ZFN mRNAs engineered for inducing DSBs at the AAVS1 locus in human cells (see, e.g., U.S. Pat. No. 8,110,379); 0.3 nmol of a 100-nt ssDNAoligo donor. The oligo donor carried a HindIII restriction site at the position of 20 bp upstream of the ZFN cleavage site, and the HindIII site was used as marker for target integration analysis by RFLP. DNA-PKcs inhibitor NU7441 was added into 2 ml per well of pre-warmed culture medium in a 6-well plate at concentration of 10 μM for HEK293 and MCF7, and 15 or 20 μM for MCF10A before transfected cells were added into the medium. Cells were grown in the inhibitor-containing medium for 24 hours at 37° C. and 5% CO2. The medium was then replaced with fresh medium without inhibitor. DMSO was used as inhibitor blank control. For genomic DNA preparation, HEK293 and MCF10A cells were harvested 3 days after transfection, and MCF7 cells were harvested 5 days after nucleofection. […]"}},
  "data": [
    {"smiles": "O=c1cc(-c2cccc3c2Sc2ccccc2S3)oc(N2CCOCC2)c1", "note": "[KU55933]", "values": [
      {"measurement": "effect on targeted integration", "setting": "[1]", "value": "no effect"},
      {"measurement": "effect on mutagenic repair", "setting": "[2]; KU55933 10 μM control", "value": "slight decrease"}
    ]},
    {"smiles": "Cc1nc2c(O)cccc2c(=O)[nH]1", "note": "[NU1025]", "values": [
      {"measurement": "integration of AAVS1 oligo", "setting": "[3]", "value": "detectable integration"}
    ]},
    {"smiles": "O=c1cc(N2CCOCC2)oc2c1ccc1ccccc12", "note": "[NU7026]", "values": [
      {"measurement": "plasmid donor-based target integration", "setting": "[4]; NU7026 alone, 20 μM", "value": "no apparent increase"}
    ]},
    {"smiles": "O=c1cc(N2CCOCC2)oc2c(-c3cccc4c3sc3ccccc34)cccc12", "note": "[NU7441]", "values": [
      {"measurement": "increase of targeted integration", "setting": "[1]; NU7441 3 μM, RFLP and 96 colony sequencing", "value": "2-3 fold"},
      {"measurement": "increase of PCR fragment donor-based target integration", "setting": "[4]; PCR fragment donor", "value": "about 5 fold"},
      {"measurement": "increase of mutagenic repair", "setting": "[2]; Day 10, after withdrawal of inhibitors", "value": "about 2 fold"},
      {"measurement": "targeted integration", "setting": "[5]", "value": "slight increase"},
      {"measurement": "CelI signal (indels)", "setting": "[6]; Nickase ZFNs co-transfected with ssOligo, NU7441 3 μM, Olaparib 5 μM", "value": 7, "unit": "%"},
      {"measurement": "clones with non-WT sequence (perfect targeted integration of the ssOligo)", "setting": "[6]; sequencing of 96 clones", "value": "one of 96"},
      {"measurement": "TALEN-mediated targeted integration", "setting": "[7]; Day 3, vs DMSO", "value": "up to two fold"},
      {"measurement": "share of all genome editing events that are targeted integrations", "setting": "[7]; TALENs, after NU7441 treatment", "value": "more than half"},
      {"measurement": "unwanted mutagenic events (Indels)", "setting": "[7]; TALENs, after NU7441 treatment", "value": "drastically reduced"},
      {"measurement": "targeted integration of a single stranded donor", "setting": "[8]", "value": "increased"}
    ]},
    {"smiles": "O=C(c1cc(Cc2n[nH]c(=O)c3ccccc23)ccc1F)N1CCN(C(=O)C2CC2)CC1", "note": "[Olaparib]", "values": [
      {"measurement": "effect on targeted integration", "setting": "[1]", "value": "did not further increase"}
    ]}
  ]
}
